Source: ChEMBL document CHEMBL1201862, “PubChem BioAssay data set” (2004)
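All cell lines were grown in 96-well plates and treated with compound for 48 hours. Here, GI50 denotes the concentration required for 50% inhibition of growth.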 Active and inactive are the calls of the source. Rule as the data show it: active = GI50 up to about 1.1 µM and inactive = higher.

What was measured:
Experiment in all cases: NCI-60 cell line screen, 48 h
[1] = tested on: TK-10
[2] = tested on: SK-MEL-2
[3] = tested on: SN12C
[4] = tested on: NCI-H460
[5] = tested on: A549
[6] = tested on: M14
[7] = tested on: RXF 393
[8] = tested on: KM12
[9] = tested on: SF-295
[10] = tested on: HT-29
[11] = tested on: SK-OV-3
[12] = tested on: CAKI-1
[13] = tested on: PC-3
[14] = tested on: HCT-15
[15] = tested on: NCI-H226
[16] = tested on: A498
[17] = tested on: COLO 205
[18] = tested on: OVCAR-5
[19] = tested on: SNB-19
[20] = tested on: DU-145
[21] = tested on: MCF7
[22] = tested on: NCI-H522
[23] = tested on: HCC 2998
[24] = tested on: OVCAR-8
[25] = tested on: LOX IMVI
[26] = tested on: SR
[27] = tested on: SW-620
[28] = tested on: SF-268
[29] = tested on: HOP-62
[30] = tested on: NCI/ADR-RES
[31] = tested on: UO-31
[32] = tested on: SK-MEL-28
[33] = tested on: SNB-75
[34] = tested on: U-251
[35] = tested on: MDA-MB-435
[36] = tested on: CCRF-CEM
[37] = tested on: EKVX
[38] = tested on: Hs-578T
[39] = tested on: HCT-116
[40] = tested on: 786-0
[41] = tested on: Malme-3M
[42] = tested on: UACC-257
[43] = tested on: SK-MEL-5
[44] = tested on: T47D
[45] = tested on: K562
[46] = tested on: OVCAR-3
[47] = tested on: ACHN
[48] = tested on: HOP-92
[49] = tested on: SF-539
[50] = tested on: MOLT-4
[51] = tested on: UACC-62
[52] = tested on: MDA-MB-231
[53] = tested on: OVCAR-4
[54] = tested on: HL-60
[55] = tested on: NCI-H23
[56] = tested on: BT-549
[57] = tested on: IGROV-1
[58] = tested on: RPMI-8226
[59] = tested on: MDA-N

## O=C(c1ccco1)N(Cc1cccnc1)C(=S)N(Cc1cccnc1)C(=O)c1ccco1
[1]
  GI50: 10.8 µM (inactive)
[2]
  GI50: 12.5 µM (inactive)
[3]
  GI50: 10.6 µM (inactive)
[4]
  GI50: 22.6 µM (inactive)
[5]
  GI50: 20.5 µM (inactive)
[6]
  GI50: 12.9 µM (inactive)
[7]
  GI50: 28.7 µM (inactive)
[8]
  GI50: 3.9 µM (inactive)
[9]
  GI50: 30.6 µM (inactive)
[10]
  GI50: 17.6 µM (inactive)
[11]
  GI50: 33.6 µM (inactive)
[12]
  GI50: 19.9 µM (inactive)
[13]
  GI50: 6.19 µM (inactive)
[14]
  GI50: 13 µM
[15]
  GI50: 19.5 µM (inactive)
[16]
  GI50: 25.7 µM (inactive)
[17]
  GI50: 4.02 µM (inactive)
[18]
  GI50: 23.7 µM (inactive)
[19]
  GI50: 30.8 µM (inactive)
[20]
  GI50: 19.5 µM (inactive)
[21]
  GI50: 3.86 µM (inactive)
[22]
  GI50: 13.5 µM (inactive)
[23]
  GI50: 17.5 µM (inactive)
[24]
  GI50: 19.4 µM (inactive)
[25]
  GI50: 5.05 µM (inactive)
[26]
  GI50: 5.28 µM (inactive)
[27]
  GI50: 5 µM (inactive)
[28]
  GI50: 18.7 µM (inactive)
[29]
  GI50: 13.1 µM (inactive)
[30]
  GI50: 34.2 µM (inactive)
[31]
  GI50: 15 µM (inactive)
[32]
  GI50: 20.1 µM (inactive)
[33]
  GI50: 38.8 µM (inactive)
[34]
  GI50: 16.3 µM (inactive)
[35]
  GI50: 11.6 µM (inactive)
[36]
  GI50: 2.74 µM (inactive)
[37]
  GI50: 19.8 µM (inactive)
[38]
  GI50: 23.3 µM (inactive)
[39]
  GI50: 7.67 µM (inactive)
[40]
  GI50: 3.06 µM (inactive)
[41]
  GI50: 16.7 µM (inactive)
[42]
  GI50: 14 µM (inactive)
[43]
  GI50: 14.6 µM (inactive)
[44]
  GI50: 24.5 µM (inactive)
[45]
  GI50: 4.84 µM (inactive)
[46]
  GI50: 6.35 µM (inactive)
[47]
  GI50: 17 µM (inactive)
[48]
  GI50: 17.7 µM (inactive)
[49]
  GI50: 11.1 µM (inactive)
[50]
  GI50: 11 µM (inactive)
[51]
  GI50: 15.2 µM (inactive)
[52]
  GI50: 8.75 µM (inactive)
[53]
  GI50: 20.4 µM (inactive)
[54]
  GI50: 15.8 µM (inactive)
[55]
  GI50: 23.8 µM (inactive)
[56]
  GI50: 23.2 µM (inactive)

## COc1ccc(C[N+](C)(C)N)cc1OC
[1]
  GI50: > 10 µM (inactive)
[2]
  GI50: > 100 µM (inactive)
[3]
  GI50: > 10 µM (inactive)
[4]
  GI50: > 100 µM (inactive)
[5]
  GI50: > 10 µM (inactive)
[6]
  GI50: > 10 µM (inactive)
[7]
  GI50: > 100 µM (inactive)
[8]
  GI50: > 10 µM (inactive)
[9]
  GI50: > 10 µM (inactive)
[10]
  GI50: > 10 µM (inactive)
[11]
  GI50: > 10 µM (inactive)
[12]
  GI50: > 10 µM (inactive)
[13]
  GI50: > 10 µM (inactive)
[14]
  GI50: > 10 µM
[15]
  GI50: > 100 µM (inactive)
[16]
  GI50: > 100 µM (inactive)
[17]
  GI50: > 10 µM (inactive)
[57]
  GI50: > 100 µM (inactive)
[18]
  GI50: > 10 µM (inactive)
[19]
  GI50: > 10 µM (inactive)
[58]
  GI50: > 10 µM (inactive)
[20]
  GI50: > 10 µM (inactive)
[21]
  GI50: > 10 µM (inactive)
[22]
  GI50: > 10 µM (inactive)
[23]
  GI50: > 10 µM (inactive)
[24]
  GI50: > 10 µM (inactive)
[25]
  GI50: > 10 µM (inactive)
[26]
  GI50: > 10 µM (inactive)
[59]
  GI50: > 10 µM (inactive)
[27]
  GI50: > 10 µM (inactive)
[28]
  GI50: > 10 µM (inactive)
[29]
  GI50: > 10 µM (inactive)
[30]
  GI50: > 10 µM (inactive)
[31]
  GI50: > 100 µM (inactive)
[32]
  GI50: > 10 µM (inactive)
[33]
  GI50: > 10 µM (inactive)
[34]
  GI50: > 10 µM (inactive)
[35]
  GI50: > 10 µM (inactive)
[36]
  GI50: > 10 µM (inactive)
[37]
  GI50: > 100 µM (inactive)
[38]
  GI50: > 10 µM (inactive)
[39]
  GI50: > 10 µM (inactive)
[40]
  GI50: > 10 µM (inactive)
[41]
  GI50: > 10 µM (inactive)
[42]
  GI50: > 10 µM (inactive)
[43]
  GI50: > 10 µM (inactive)
[45]
  GI50: 4.03 µM (inactive)
[46]
  GI50: > 10 µM (inactive)
[47]
  GI50: > 10 µM (inactive)
[48]
  GI50: > 10 µM (inactive)
[49]
  GI50: > 10 µM (inactive)
[50]
  GI50: > 10 µM (inactive)
[51]
  GI50: > 100 µM (inactive)
[52]
  GI50: > 10 µM (inactive)
[53]
  GI50: > 10 µM (inactive)
[54]
  GI50: > 10 µM (inactive)
[55]
  GI50: > 10 µM (inactive)
[56]
  GI50: > 10 µM (inactive)
